In PubChem BioAssay (NCI):
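All cell lines were grown in 96-well plates and treated with compound for 48 hours. Definition used: TGI = concentration required for complete inhibition of growth.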

Experiments:
Test in all cases: NCI anticancer screen, dose series, 48 h
DLD-1 colon = test system: DLD-1 colon
ACHN renal = test system: ACHN renal
LOX IMVI melanoma = test system: LOX IMVI melanoma
CAKI-1 renal = test system: CAKI-1 renal
MALME-3M melanoma = test system: MALME-3M melanoma
HT29 colon = test system: HT29 colon
A549 NSCLC = test system: A549 NSCLC
U251 CNS = test system: U251 CNS
SNB-78 CNS = test system: SNB-78 CNS
OVCAR-8 ovarian = test system: OVCAR-8 ovarian
TK-10 renal = test system: TK-10 renal
LXFL 529 NSCLC = test system: LXFL 529 NSCLC
DMS 273 small cell lung = test system: DMS 273 small cell lung
IGROV1 ovarian = test system: IGROV1 ovarian
NCI-H460 lung = test system: NCI-H460 lung
HOP-62 NSCLC = test system: HOP-62 NSCLC
M19-MEL melanoma = test system: M19-MEL melanoma
SNB-19 CNS = test system: SNB-19 CNS
SK-MEL-5 melanoma = test system: SK-MEL-5 melanoma
HL-60(TB) leukemia = test system: HL-60(TB) leukemia
K-562 leukemia = test system: K-562 leukemia
HCT-116 colon = test system: HCT-116 colon
DMS 114 small cell lung = test system: DMS 114 small cell lung
A498 renal = test system: A498 renal
XF 498 CNS = test system: XF 498 CNS
OVCAR-4 ovarian = test system: OVCAR-4 ovarian
HCC-2998 colon = test system: HCC-2998 colon
UACC-62 melanoma = test system: UACC-62 melanoma
SK-MEL-28 melanoma = test system: SK-MEL-28 melanoma
786-0 renal = test system: 786-0 renal
NCI-H522 lung = test system: NCI-H522 lung
HOP-92 NSCLC = test system: HOP-92 NSCLC
SR leukemia = test system: SR leukemia
UACC-257 melanoma = test system: UACC-257 melanoma
SF-295 CNS = test system: SF-295 CNS
RXF 393 renal = test system: RXF 393 renal
SW-620 colon = test system: SW-620 colon
SF-268 CNS = test system: SF-268 CNS
COLO 205 colon = test system: COLO 205 colon
M14 melanoma = test system: M14 melanoma
HOP-18 NSCLC = test system: HOP-18 NSCLC
UO-31 renal = test system: UO-31 renal
RPMI-8226 leukemia = test system: RPMI-8226 leukemia
SK-OV-3 ovarian = test system: SK-OV-3 ovarian
SN12C renal = test system: SN12C renal
KM12 colon = test system: KM12 colon
NCI-H226 lung = test system: NCI-H226 lung
NCI-H23 lung = test system: NCI-H23 lung
EKVX NSCLC = test system: EKVX NSCLC
OVCAR-3 ovarian = test system: OVCAR-3 ovarian
SNB-75 CNS = test system: SNB-75 CNS
SF-539 CNS = test system: SF-539 CNS
MOLT-4 leukemia = test system: MOLT-4 leukemia
OVCAR-5 ovarian = test system: OVCAR-5 ovarian
KM20L2 colon = test system: KM20L2 colon
SK-MEL-2 melanoma = test system: SK-MEL-2 melanoma
HCT-15 colon = test system: HCT-15 colon
CCRF-CEM leukemia = test system: CCRF-CEM leukemia

Measured: TGI

O=S1(=O)C[C@H](O)[C@H](O)CS1
not listed: SK-MEL-2 melanoma | HCT-15 colon | CCRF-CEM leukemia
> 100 µM: all other assays above

COc1cc2cc3c4c(cc(OC)c(OC)c4c2cc1OC)CCN3C(=O)OCCN1CCNCC1
30 µM: HL-60(TB) leukemia
29.8 µM: HCC-2998 colon | SR leukemia
23.8 µM: 786-0 renal
24.9 µM: KM20L2 colon
27.9 µM: RXF 393 renal | M14 melanoma
31 µM: MALME-3M melanoma
24.2 µM: HCT-116 colon
31.4 µM: SNB-78 CNS
28.5 µM: CAKI-1 renal
28.9 µM: U251 CNS
26.5 µM: DMS 273 small cell lung
27.5 µM: SNB-75 CNS
29.9 µM: SN12C renal
28.2 µM: SK-MEL-5 melanoma | SF-295 CNS
34.4 µM: A549 NSCLC
44.6 µM: CCRF-CEM leukemia
34.2 µM: SK-MEL-2 melanoma
23.3 µM: SF-268 CNS
26.2 µM: HOP-92 NSCLC
31.5 µM: HOP-62 NSCLC
31.2 µM: K-562 leukemia
34.6 µM: RPMI-8226 leukemia
28.8 µM: OVCAR-3 ovarian
31.8 µM: SK-OV-3 ovarian | NCI-H23 lung
28.6 µM: EKVX NSCLC
29.2 µM: HCT-15 colon
28.4 µM: SF-539 CNS
29.1 µM: DLD-1 colon | UACC-257 melanoma
26.6 µM: LOX IMVI melanoma | NCI-H460 lung
32.2 µM: IGROV1 ovarian
31.3 µM: OVCAR-4 ovarian
25.8 µM: HT29 colon
30.6 µM: NCI-H522 lung
29.7 µM: OVCAR-8 ovarian
19.6 µM: M19-MEL melanoma
36.6 µM: SK-MEL-28 melanoma
28.3 µM: ACHN renal | TK-10 renal | LXFL 529 NSCLC | KM12 colon
27.8 µM: A498 renal
43.3 µM: SNB-19 CNS
34.8 µM: MOLT-4 leukemia
20.9 µM: COLO 205 colon
30.7 µM: HOP-18 NSCLC
31.9 µM: OVCAR-5 ovarian
29.4 µM: XF 498 CNS
not listed: DMS 114 small cell lung
28.1 µM: all other assays above

Cc1cc(N)c(C)c2c1[nH]c1ccc(O)cc12
41.1 µM: NCI-H522 lung
91.5 µM: CCRF-CEM leukemia
not listed: DLD-1 colon | LXFL 529 NSCLC | IGROV1 ovarian | SK-MEL-5 melanoma | DMS 114 small cell lung | A498 renal | UACC-62 melanoma | HOP-92 NSCLC | RXF 393 renal | SK-OV-3 ovarian | SNB-75 CNS | KM20L2 colon
> 100 µM: all other assays above
